From patent US8603997B2, “siRNA that inhibits WT1 gene expression and uses thereof” (Haruo Sugiyama, priority 2004, dated 2013)

Experiments:
[1] = system: HT-1080 fibrosarcoma cells (WT1-expressing); test: Cell count 72 hours after introducing vector-based WT1 siRNAs, HT-1080; conditions: HT-1080, cell count 72 hours after introduction, versus mock vector
Method: (§1) Treatments with the siRNA vectors and mock vector were carried out in the following steps. Cells were plated onto a 6-well plate, and on the next day, the WT1-siRNA expression vectors and mock vector were transiently expressed by lipofection using FuGENE 6 (Roche). Three days later, the cells were trypsinized and the number of cells was counted. The WT1 protein expression level in these cells was analyzed by Western blotting.
To analyze the effect of vector-based WT1 siRNAs on cell growth, the number of cells was counted 72 hours after introducing the six types of vector-based WT1 siRNAs, loop1-WRI-4, WRI-4, WRI-4m, WRI-16m, WRI-17m, and WRI-18m, and a mixture of WRI-4m, WRI-16m, WRI-17m, and WRI-18m, respectively. […] Among the WT1 siRNAs, WRI-4m suppressed growth by 90% or more. In contrast, in PC-14 lung cancer cells (a non-WT1-expressing cell line), cell growth was not suppressed by any of the six vector-based WT1 siRNA treatments (FIG. 6).

HL-60 leukemia cells = test: Cell count 72 hours after vector introduction, HL-60; type: cell-based; conditions: HL-60, cell count 72 hours later
Method: as §1
(§2) Furthermore, to investigate whether two types of vector-based WT1 siRNAs (WRI-4m and WRI-16m) can suppress the growth of various WT1-expressing cancer cells, these vectors were introduced into three WT1-expressing cell lines: AZ-521 gastric cancer cells, SW620 colon cancer cells, and HL-60 leukemia cells, and the number of cells were counted 72 hours later.

[2] = system: AZ-521 gastric cancer cells; test: Cell count 72 hours after vector introduction, AZ-521; type: cell-based; conditions: AZ-521, cell count 72 hours later
Method: as §1, §2

PC-14 [3] = test: Mitochondrial membrane potential by MitoLight staining and flow cytometry, PC-14; type: cell-based; conditions: PC-14 (non-WT1-expressing), 72 hours
Method: (§3) To elucidate whether the vector-based WT1 siRNA-induced apoptosis takes place through a mitochondria-mediated pathway, the WT1-expressing cell line HT-1080 cells and the non-WT1-expressing cell line PC14 cells were both treated with WRI-4m and a mock vector respectively. 72 hours later, the state of mitochondrial membrane potential was analyzed by MitoLight staining followed by flow cytometry.
(§4) The change in mitochondrial membrane potential (ΔΨm) due to apoptosis induction was analyzed using the MitoLight apoptosis detection kit (Chemicon). Cells after apoptosis induction were incubated at 37° C. in a buffer containing MitoLight (a mitochondria staining dye) for 15 minutes, and then analyzed on a FACScan FL2 channel.

HT-1080 cells [4] = test: Mitochondrial membrane potential by MitoLight staining and flow cytometry, HT-1080; type: cell-based; conditions: HT-1080, 72 hours, compared to mock vector treatment
Method: as §3, §4

SW620 colon cancer cells = test: Cell count 72 hours after vector introduction, SW620; type: cell-based; conditions: SW620, cell count 72 hours later
Method: as §1, §2

HT-1080 cells [5] = test: Apoptosis by Annexin V-FITC/PI flow cytometry, HT-1080; type: cell-based
Method: (§5) To elucidate the mechanism of cancer cell growth suppression by vector-based WT1 siRNAs, induction of apoptosis in cells subjected to a vector-based WT1 siRNA treatment was analyzed. Two WT1-expressing cell lines HT-1080 and AZ-521, and a non-WT1-expressing cell line PC-14 were subjected to the WRI-4m treatment, double-stained with AnnexinV-FITC and PI, and then analyzed by flow cytometry.
(§6) Apoptosis analysis by flow cytometry was carried out by the following steps. First, to detect apoptosed cells, 1.0×10^5 cells were washed with PBS, and then the cells were stained by reaction with Annexin V-FITC and PI at room temperature for 15 minutes, using the MEBCYTO Apoptosis kit (Medical and Biological Laboratories Co., Ltd, Nagoya, Japan). Upon analysis of these cells using a FACScan flowcytometer (Becton Dickinson, San Jose, Calif.), Annexin V-FITC-positive cells were defined as apoptosed cells.

PC-14 [6] = test: Apoptosis by Annexin V-FITC/PI flow cytometry, PC-14; type: cell-based; conditions: PC-14 (non-WT1-expressing)
Method: as §5, §6

cancer cells [7] = test: Mitochondrial membrane potential after combined treatment (flow cytometry); type: cell-based; conditions: compared to anticancer agent alone
Method: as §4
Combined use of an siRNA vector with a chemotherapeutic agent or a death ligand, was carried out by the following steps. Cells were plated onto a 6-well plate, and on the next day, the vector-based WT1 siRNA and mock vector were transiently expressed by lipofection using FuGENE 6 (Roche), and 48 hours later, the cells were treated for another 24 hours with 25 μM etoposide (WAKO), 0.2 μM doxorubicin (Sigma), or […] of TNF-related apoptosis-inducing ligand (TRAIL) (Peprotech).
Mitochondrial membrane potential after combined treatment using vector-based WT1 siRNA with doxorubicin, etoposide, and TRAIL, respectively, was evaluated by flow cytometry.

cancer cells [8] = test: Release of cytochrome c from mitochondria into cytoplasm after combined treatment (Western blot); type: cell-based
Method: Western blot analysis was carried out by the following steps. Cells transiently expressing the siRNA expression vectors and mock vector were dissolved in an SDS sample buffer, and proteins were separated by SDS-PAGE and then blotted onto a PVDF membrane. Color was developed using a BCIP-NBT kit with the anti-WT1 antibody C-19 (Santa Cruz Biotechnology), an anti-cytochrome C antibody (Pharmingen), or an anti-GAPDH antibody (Chemicon) as a primary antibody, and an ALP-conjugated anti-rabbit or anti-mouse antibody (Santa Cruz Biotechnology) as a second antibody.
Combined use of an siRNA vector with a chemotherapeutic agent or a death ligand, was carried out by the following steps. […]
To reveal that enhancement of cell growth suppression due to combined use of vector-based WT1-siRNA with an anticancer agent is caused by enhancing the induction of mitochondria-mediated apoptosis, the release of cytochrome c from mitochondria into cytoplasm which takes place after combined treatment of vector-based WT1-siRNA with doxorubicin or etoposide was analyzed.
The release of cytochrome c from mitochondria into cytoplasm was analyzed by the following steps. […]

AZ-521 cells = test: Apoptosis by Annexin V-FITC/PI flow cytometry, AZ-521; type: cell-based
Method: as §5, §6

## WRI-4m: siRNA vector, loop 2, target positions 1150-1179 (SEQ ID NO: 9), mutated sense strand SEQ ID NO: 11 (sense AGCTCCAGCTTAGTGAAGTGGGTAGGAGGG)
[1]
  growth suppression: ≥ 90%
HL-60 leukemia cells
  growth compared to mock vector treatment: significantly suppressed
[2]
  growth compared to mock vector treatment: significantly suppressed
PC-14 [3]
  loss of the mitochondrial membrane potential: did not induce
HT-1080 cells [4]
  loss of the mitochondrial membrane potential: significantly induced
SW620 colon cancer cells
  growth compared to mock vector treatment: significantly suppressed
HT-1080 cells [5]
  apoptosis induced (Annexin V-FITC-positive cells): 71.1%
PC-14 [6]
  apoptosis induction: did not induce apoptosis
Cancer cells [7]; combined treatment with doxorubicin
  loss of mitochondrial membrane potential: significantly enhanced
Cancer cells [7]; combined treatment with etoposide
  loss of mitochondrial membrane potential: significantly enhanced
Cancer cells [8]; combined treatment with doxorubicin (0.2 μM, 24 hours)
  release of cytochrome c into cytoplasm: enhanced
Cancer cells [8]; combined treatment with etoposide (25 μM, 24 hours)
  release of cytochrome c into cytoplasm: enhanced
AZ-521 cells
  apoptosis induced (Annexin V-FITC-positive cells): 40.6%
